Measurements published in US6340689B1 (priority 1999, dated 2002).
Values after ≈ are worked out from the molar mass of the structure shown.

Tests used:
[1] = test system: L. pneumophila serogroup 2; test: microbe, parasite or virus in culture; type: cell-based; details: Legionella pneumophila; for MIC: 48 h, read-out: MIC Range
L. longbeacheae = test: organism not typed; type: cell-based; details: for MIC: 48 h, read-out: MIC Range
L. micadadei = test: organism not typed; type: cell-based, L. micdadei; details: for MIC: 48 h, read-out: MIC Range
[2] = test system: L. pneumophila serogroup 7; test: microbe, parasite or virus in culture; type: cell-based; details: Legionella pneumophila; for MIC: 48 h, read-out: MIC Range
[3] = test system: L. pneumophila serogroup 4; test: microbe, parasite or virus in culture; type: cell-based; details: Legionella pneumophila; for MIC: 48 h, read-out: MIC Range
[4] = test system: L. pneumophila serogroup 1; test: microbe, parasite or virus in culture; type: cell-based, Legionella pneumophila; details: Legionella pneumophila; for MIC: 48 h, read-out: MIC Range; for MIC90: L. pneumophila serogroup 1 (n = 85)
[5] = test system: L. pneumophila serogroup 3; test: microbe, parasite or virus in culture; type: cell-based; details: Legionella pneumophila; for MIC: 48 h, read-out: MIC Range
[6] = test system: Erythromycin-susceptible Legionella spp. other than L. pneumophila; type: cell-based; details: Erythromycin-susceptible Legionella spp. (n = 13); 4 × MIC; mean ± SD
Other Legionella spp. = test: microbe, parasite or virus in culture; type: cell-based; details: for MIC: 48 h, read-out: MIC Range
[7] = test system: Erythromycin-susceptible L. pneumophila; type: cell-based, Legionella pneumophila; details: Erythromycin-susceptible L. pneumophila (n = 15); 4 × MIC; mean ± SD
[8] = test system: L. pneumophila serogroup 5; test: microbe, parasite or virus in culture; type: cell-based; details: Legionella pneumophila; for MIC: 48 h, read-out: MIC Range
[9] = test system: L. pneumophila serogroup 6; test: microbe, parasite or virus in culture; type: cell-based; details: Legionella pneumophila; for MIC: 48 h, read-out: MIC Range
[10] = test system: L. pneumophila serogroup 8, 9; test: microbe, parasite or virus in culture; type: cell-based; details: Legionella pneumophila; for MIC: 48 h, read-out: MIC Range
L. dumoffii = test: organism not typed; type: cell-based; details: for MIC: 48 h, read-out: MIC Range
[11] = test system: isolates of Legionella pneumophila and other Legionella spp.; test: microbe, parasite or virus in culture; type: cell-based

Work on `CC[C@H]1OC(=O)[C@H](C)[C@@H](O[C@H]2C[C@@](C)(OC)[C@@H](O)[C@H](C)O2)[C@H](C)[C@@H](O[C@@H]2O[C@H](C)C[C@H](N(C)C)[C@H]2O)[C@](C)(O)C[C@@H](C)C(=O)[C@H](C)[C@@H](O)[C@]1(C)O` [Erythromycin] yielded an MIC50 [1] of 0.25 µg/mL (≈ 0.341 µM), an MIC90 [1] of 0.25 µg/mL (≈ 0.341 µM) and an MIC [1] of 0.008 to 0.5 µg/mL (≈ 0.0109 to 0.681 µM). It also gave an MIC50 (L. longbeacheae) of 0.25 µg/mL (≈ 0.341 µM), an MIC90 (L. longbeacheae) of 0.5 µg/mL (≈ 0.681 µM) and an MIC (L. longbeacheae) of 0.008 to 0.5 µg/mL (≈ 0.0109 to 0.681 µM). The MIC50 (L. micadadei) was 0.5 µg/mL (≈ 0.681 µM), the MIC90 (L. micadadei) was 1 µg/mL (≈ 1.36 µM) and the MIC (L. micadadei) was 0.25 to 1 µg/mL (≈ 0.341 to 1.36 µM). It also gave an MIC50 [2] of 0.12 µg/mL (≈ 0.164 µM), an MIC90 [2] of 0.5 µg/mL (≈ 0.681 µM) and an MIC [2] of 0.12 to 0.5 µg/mL (≈ 0.164 to 0.681 µM). For the same compound, the MIC50 [3] was 0.5 µg/mL (≈ 0.681 µM), the MIC90 [3] was 0.5 µg/mL (≈ 0.681 µM) and the MIC [3] was 0.016 to 0.5 µg/mL (≈ 0.0218 to 0.681 µM). For the same compound, the MIC50 [4] was 0.25 µg/mL (≈ 0.341 µM), the MIC [4] was 0.03 to 1 µg/mL (≈ 0.0409 to 1.36 µM) and the MIC90 [4] was 1 µg/mL (≈ 1.36 µM). For the same compound, the MIC50 [5] was 0.25 µg/mL (≈ 0.341 µM), the MIC90 [5] was 0.5 µg/mL (≈ 0.681 µM) and the MIC [5] was 0.06 to 0.5 µg/mL (≈ 0.0818 to 0.681 µM). For the same compound, the “Mean PAE” value [6] was 2.06 ± 2 h, the MIC50 (Other Legionella spp.) was 0.5 µg/mL (≈ 0.681 µM) and the MIC90 (Other Legionella spp.) was 1 µg/mL (≈ 1.36 µM). For the same compound, the MIC (Other Legionella spp.) was 0.016 to 1 µg/mL (≈ 0.0218 to 1.36 µM), the “Mean PAE” value [7] was 0.93 ± 1 h and the MIC50 [8] was 0.25 µg/mL (≈ 0.341 µM). It also gave an MIC90 [8] of 0.5 µg/mL (≈ 0.681 µM), an MIC [8] of 0.06 to 1 µg/mL (≈ 0.0818 to 1.36 µM) and an MIC50 [9] of 0.12 µg/mL (≈ 0.164 µM). For the same compound, the MIC90 [9] was 0.25 µg/mL (≈ 0.341 µM), the MIC [9] was 0.008 to 0.25 µg/mL (≈ 0.0109 to 0.341 µM) and the MIC50 [10] was 0.25 µg/mL (≈ 0.341 µM). For the same compound, the MIC90 [10] was 0.25 µg/mL (≈ 0.341 µM), the MIC [10] was 0.25 µg/mL (≈ 0.341 µM) and the MIC50 (L. dumoffii) was 0.25 µg/mL (≈ 0.341 µM). It also gave an MIC90 (L. dumoffii) of 0.5 µg/mL (≈ 0.681 µM) and an MIC (L. dumoffii) of 0.25 to 0.5 µg/mL (≈ 0.341 to 0.681 µM).

In the case of `Cc1c(F)c(N2CCNC(C)C2)cc2c1c(=O)c(C(=O)O)cn2C1CC1` (stereo not shown) [Grepafloxacin], the MIC90 [11] is reported as 0.016 µg/mL (≈ 0.0445 µM), the MIC50 [1] is reported as 0.008 µg/mL (≈ 0.0223 µM) and the MIC90 [1] is reported as 0.016 µg/mL (≈ 0.0445 µM). For the same compound, the MIC [1] was 0.004 to 0.03 µg/mL (≈ 0.0111 to 0.0835 µM), the MIC50 (L. longbeacheae) was 0.03 µg/mL (≈ 0.0835 µM) and the MIC90 (L. longbeacheae) was 0.06 µg/mL (≈ 0.167 µM). The MIC (L. longbeacheae) was 0.004 to 0.06 µg/mL (≈ 0.0111 to 0.167 µM), the MIC50 (L. micadadei) was 0.008 µg/mL (≈ 0.0223 µM) and the MIC90 (L. micadadei) was 0.016 µg/mL (≈ 0.0445 µM). It also gave an MIC (L. micadadei) of 0.004 to 0.016 µg/mL (≈ 0.0111 to 0.0445 µM), an MIC50 [2] of at most 0.004 µg/mL and an MIC90 [2] of 0.008 µg/mL (≈ 0.0223 µM). For the same compound, the MIC [2] was 0.004 to 0.008 µg/mL (≈ 0.0111 to 0.0223 µM), the MIC50 [3] was 0.008 µg/mL (≈ 0.0223 µM) and the MIC90 [3] was 0.016 µg/mL (≈ 0.0445 µM). The MIC [3] was 0.008 to 0.016 µg/mL (≈ 0.0223 to 0.0445 µM), the MIC50 [4] was 0.016 µg/mL (≈ 0.0445 µM) and the MIC [4] was 0.004 to 0.06 µg/mL (≈ 0.0111 to 0.167 µM). It also gave an MIC90 [4] of 0.016 µg/mL (≈ 0.0445 µM), an MIC50 [5] of 0.008 µg/mL (≈ 0.0223 µM) and an MIC90 [5] of 0.016 µg/mL (≈ 0.0445 µM). For the same compound, the MIC [5] was 0.004 to 0.016 µg/mL (≈ 0.0111 to 0.0445 µM), the “Mean PAE” value [6] was 1.67 ± 1 h and the MIC50 (Other Legionella spp.) was 0.03 µg/mL (≈ 0.0835 µM). The MIC90 (Other Legionella spp.) was 0.03 µg/mL (≈ 0.0835 µM), the MIC (Other Legionella spp.) was 0.004 to 0.03 µg/mL (≈ 0.0111 to 0.0835 µM) and the “Mean PAE” value [7] was 2.62 ± 3 h. For the same compound, the MIC50 [8] was 0.016 µg/mL (≈ 0.0445 µM), the MIC90 [8] was 0.03 µg/mL (≈ 0.0835 µM) and the MIC50 [9] was 0.008 µg/mL (≈ 0.0223 µM). It also gave an MIC90 [9] of 0.016 µg/mL (≈ 0.0445 µM), an MIC [9] of 0.004 to 0.016 µg/mL (≈ 0.0111 to 0.0445 µM) and an MIC50 [10] of 0.008 µg/mL (≈ 0.0223 µM). For the same compound, the MIC90 [10] was 0.008 µg/mL (≈ 0.0223 µM), the MIC [10] was 0.008 µg/mL (≈ 0.0223 µM) and the MIC50 (L. dumoffii) was 0.06 µg/mL (≈ 0.167 µM). The MIC90 (L. dumoffii) was 0.06 µg/mL (≈ 0.167 µM) and the MIC (L. dumoffii) was 0.06 µg/mL (≈ 0.167 µM).

Work on `C[C@H]1COc2c(N3CCN(C)CC3)c(F)cc3c(=O)c(C(=O)O)cn1c23` [Levofloxacin] yielded an MIC90 [11] of 0.016 µg/mL (≈ 0.0443 µM), an MIC50 [1] of 0.008 µg/mL (≈ 0.0221 µM) and an MIC90 [1] of 0.008 µg/mL (≈ 0.0221 µM). For the same compound, the MIC [1] was 0.004 to 0.016 µg/mL (≈ 0.0111 to 0.0443 µM), the MIC50 (L. longbeacheae) was 0.016 µg/mL (≈ 0.0443 µM) and the MIC90 (L. longbeacheae) was 0.016 µg/mL (≈ 0.0443 µM). For the same compound, the MIC (L. longbeacheae) was 0.008 to 0.016 µg/mL (≈ 0.0221 to 0.0443 µM), the MIC50 (L. micadadei) was 0.016 µg/mL (≈ 0.0443 µM) and the MIC90 (L. micadadei) was 0.016 µg/mL (≈ 0.0443 µM). It also gave an MIC (L. micadadei) of 0.008 to 0.016 µg/mL (≈ 0.0221 to 0.0443 µM), an MIC50 [2] of 0.008 µg/mL (≈ 0.0221 µM) and an MIC90 [2] of 0.016 µg/mL (≈ 0.0443 µM). The MIC [2] was 0.008 to 0.016 µg/mL (≈ 0.0221 to 0.0443 µM), the MIC50 [3] was 0.016 µg/mL (≈ 0.0443 µM) and the MIC90 [3] was 0.016 µg/mL (≈ 0.0443 µM). The MIC [3] was 0.004 to 0.016 µg/mL (≈ 0.0111 to 0.0443 µM), the MIC50 [4] was 0.016 µg/mL (≈ 0.0443 µM) and the MIC [4] was 0.004 to 0.016 µg/mL (≈ 0.0111 to 0.0443 µM). For the same compound, the MIC90 [4] was 0.016 µg/mL (≈ 0.0443 µM), the MIC50 [5] was 0.008 µg/mL (≈ 0.0221 µM) and the MIC90 [5] was 0.016 µg/mL (≈ 0.0443 µM). The MIC [5] was 0.008 to 0.016 µg/mL (≈ 0.0221 to 0.0443 µM), the “Mean PAE” value [6] was 1.35 ± 1 h and the MIC50 (Other Legionella spp.) was 0.016 µg/mL (≈ 0.0443 µM). The MIC90 (Other Legionella spp.) was 0.016 µg/mL (≈ 0.0443 µM), the MIC (Other Legionella spp.) was 0.008 to 0.06 µg/mL (≈ 0.0221 to 0.166 µM) and the “Mean PAE” value [7] was 2.14 ± 2 h. It also gave an MIC50 [8] of 0.008 µg/mL (≈ 0.0221 µM), an MIC90 [8] of 0.016 µg/mL (≈ 0.0443 µM) and an MIC [8] of 0.004 to 0.016 µg/mL (≈ 0.0111 to 0.0443 µM). The MIC50 [9] was 0.008 µg/mL (≈ 0.0221 µM), the MIC90 [9] was 0.016 µg/mL (≈ 0.0443 µM) and the MIC [9] was 0.008 to 0.016 µg/mL (≈ 0.0221 to 0.0443 µM). It also gave an MIC50 [10] of 0.008 µg/mL (≈ 0.0221 µM), an MIC90 [10] of 0.016 µg/mL (≈ 0.0443 µM) and an MIC [10] of 0.008 to 0.016 µg/mL (≈ 0.0221 to 0.0443 µM). For the same compound, the MIC50 (L. dumoffii) was 0.016 µg/mL (≈ 0.0443 µM), the MIC90 (L. dumoffii) was 0.016 µg/mL (≈ 0.0443 µM) and the MIC (L. dumoffii) was 0.016 µg/mL (≈ 0.0443 µM).
